Literature values in article PMC5427847, “Epilepsy-associated GRIN2A mutations reduce NMDA receptor trafficking and agonist potency – molecular profiling and functional rescue” (Scientific Reports, 2017).

Experiments:
[1] = tested on: GluN2A K484 to aspartic acid; conditions: K484 to aspartic acid versus wild type
[2] = tested on: GluN1 D732 mutated to alanine, co-expressed with GluN2A; conditions: receptor remaining on the cell surface
D732A-GluN1 = conditions: competitive glycine site antagonist

**Q.** Which results are given for `NCC(=O)O` [Glycine, glycine]?
**A.** Effect on glycine binding [1]: no measurable effect; Reduction in glycine potency [2]: 4000 fold

**Q.** With `N[C@@H](CCC(=O)O)C(=O)O` [Glutamate, glutamate] as the compound, how does the “Reduction of glutamate affinity” value [1] read?
**A.** The value was 6 fold.

**Q.** For `O=C(O)c1cc(=O)c2c(Cl)cc(Cl)cc2[nH]1` [DCKA], which “Rescue of mutant receptors trapped within the ER” value (D732A-GluN1) is on record?
**A.** The value was “has been achieved”.
